Experimental data as given in article PMC5802278, “Molecular and cellular mechanisms of HIF prolyl hydroxylase inhibitors in clinical trials” (Chemical Science, 2017).
Like-named read-outs stand apart in the source and are kept apart here.

Legend:
PHD1 = PHD1 (Homo sapiens, UniProt Q96KS0); assay: MALDI-TOF MS PHD hydroxylation assay; type: biochemical
Procedure: (§1) Protocols for in vitro PHD1–3 MALDI-TOF MS hydroxylation assays[30] and for the AlphaScreen histone demethylase assays[44] were as reported.
(§2) Although sharing homologous C-terminal catalytic domains, the N-terminal regions of PHD1–3 vary. […] In vitro inhibition assays of the clinical trial PHD inhibitors (and some of their structurally related analogue) against 1 μM recombinant human PHD1–3 were performed.
(§3) Fig. S11. In vitro PHD isoform selectivity profiling of PHD inhibitors. Inhibition of PHD inhibitors against human PHD125 -3 as assayed by MALDI-TOF MS (the protocol is described in Chan et al. ). Eight concentrations were used to obtained dose-response curve for each compound. Data points presented in the graph are mean with standard deviation, n=3. IC50 values (listed in Supplemental Table S3) were calculated using GraphPad Prism® 5.04.
(§4) (1 picture or pasted object on this page, not shown here)

PHD3 = PHD3 (Homo sapiens, UniProt Q9H6Z9); assay: MALDI-TOF MS PHD hydroxylation assay; type: biochemical
PHD3, sequence (Q9H6Z9 whole entry): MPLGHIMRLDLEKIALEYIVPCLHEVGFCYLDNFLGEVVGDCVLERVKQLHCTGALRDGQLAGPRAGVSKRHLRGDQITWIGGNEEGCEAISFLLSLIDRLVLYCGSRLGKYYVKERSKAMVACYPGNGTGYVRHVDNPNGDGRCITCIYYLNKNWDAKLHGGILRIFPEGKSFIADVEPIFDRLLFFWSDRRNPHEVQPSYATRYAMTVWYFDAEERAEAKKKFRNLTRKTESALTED
Procedure: as §1, §2, §3, §4

[1] = test system: HIF-1α Pro402 (NODD), Pro564 (CODD) and Asn803 hydroxylation in RCC4 cells; assay: Immunoblotting of HIF-1α hydroxylation in VHL-deficient RCC4 cells; type: cell-based, human; details: 6 hours; for comparison of inhibition of NODD and CODD hydroxylation: RCC4 cells, 10, 50 and 100 μM; for inhibition of HIF-1α NODD and CODD hydroxylation: titration
Procedure: To test whether the cellular HIF-α induction occurs via inhibition of HIF-α hydroxylation, we utilized a Von Hippel–Lindau (VHL)-deficient renal cell carcinoma cell line RCC4, in which HIF-α is constitutively stabilized in normoxia due to loss of functional VHL.[77] We used antibodies specific for hydroxylation at the N-terminal and C-terminal oxygen-dependent degradation domains, Pro402 (NODD) and Pro564 (CODD) at HIF-1α.[78] HIF-1α hydroxylation status was analyzed after 6 hours treatment. […]. page 15: […]
Cell Culture and Immunoblotting
HeLa and RCC4 cells were cultured in Dulbecco’s Modified Eagle’s Medium (DMEM; Sigma Aldrich D6546-500ML) supplemented with 10% fetal bovine serum (Sigma Aldrich F7524-500ML), 4 mM L-glutamine (Sigma Aldrich G7513- 100ML), 50 U/mL penicillin, and 50 μg/mL streptomycin (Sigma Aldrich P0781-100ML). Cells were seeded to reach 90-100% confluency prior to compound treatment. Cells were exposed to the inhibitor at a final concentration of 1% DMSO for 5-6 hours. For Fe(II) titration in the presence of inhibitors, ferric ammonium citrate was added to the cells for further 16 hours after 6 hours of incubation […]
Cells were harvested in urea/SDS buffer (6.7 M urea, 10 mM Tris-Cl pH 6.8, 10% glycerol, and1% SDS) supplemented with 1mM dithiothreitol following a phosphate-buffered saline (PBS) rinse. Cell extracts were analyzed with SDS-PAGE, electroblotted to polyvinylidene difluoride (PVDF) membrane (Millipore) and probed with the corresponding primary antibody for 1 hour at room temperature or overnight at 4 °C. The secondary antibody specific to primary antibody species conjugated with HRP were applied at room temperature for 1 hour.
The antibodies used for immonoblotting were as follows: pan-anti-HIF-1α (clone 54, BD Transduction Laboratories™), anti-HIF-1α Hyp402 (catalogue number 07-1585, Merck Millipore), anti-HIF-1α Hyp564 (D43B5, Cell Signaling), anti-HIF-1α HyN803 (a generous gift from Lee et al.15), PHD216, PHD316, and HRP-conjugated anti-β-actin (clone AC15, Abcam). Details of antibodies used are given in Tian et al.17 Detection of signal was achieved using SuperSignal™ West Dura Extended Duration Substrate kTM it (Thermo Scientific 34075, unless otherwise stated) either with film or ChemiDoc MP (BIO-RAD) imaging system. TM Quantification of the immunobloting signal was performed with Image Lab software from […]

JARID1A (KDM5A) = molecular target: T1, JARID1A (KDM5A) (Homo sapiens, UniProt P29375); assay: AlphaScreen histone demethylase assay; type: biochemical
T1 sequence (P29375 12-797 limits assumed): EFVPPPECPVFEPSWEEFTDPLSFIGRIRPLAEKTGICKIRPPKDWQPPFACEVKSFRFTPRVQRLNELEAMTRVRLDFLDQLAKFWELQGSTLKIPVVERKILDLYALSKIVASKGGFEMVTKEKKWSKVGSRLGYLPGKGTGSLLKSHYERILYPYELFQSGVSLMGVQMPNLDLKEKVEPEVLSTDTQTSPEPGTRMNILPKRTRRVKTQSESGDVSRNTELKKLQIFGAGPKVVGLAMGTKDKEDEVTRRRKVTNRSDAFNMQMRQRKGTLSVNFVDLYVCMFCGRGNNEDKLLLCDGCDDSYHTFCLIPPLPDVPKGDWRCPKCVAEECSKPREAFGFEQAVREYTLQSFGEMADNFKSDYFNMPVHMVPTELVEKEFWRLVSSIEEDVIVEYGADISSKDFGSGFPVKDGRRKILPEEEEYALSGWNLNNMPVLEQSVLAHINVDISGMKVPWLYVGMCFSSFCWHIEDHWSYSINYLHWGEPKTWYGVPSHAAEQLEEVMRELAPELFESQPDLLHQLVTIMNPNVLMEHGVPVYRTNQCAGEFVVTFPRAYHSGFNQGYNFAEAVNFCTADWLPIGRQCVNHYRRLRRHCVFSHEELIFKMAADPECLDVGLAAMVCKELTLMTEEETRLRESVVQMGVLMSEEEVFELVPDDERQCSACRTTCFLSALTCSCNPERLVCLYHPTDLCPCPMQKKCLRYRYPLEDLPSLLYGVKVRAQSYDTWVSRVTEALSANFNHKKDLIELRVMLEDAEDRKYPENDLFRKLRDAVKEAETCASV

[2] = 1μM isolated recombinant human PHD1, MALDI-TOF MS, read-out: IC50 PHD1
[3] = 1μM isolated recombinant human PHD3, MALDI-TOF MS, read-out: IC50 PHD3

PHD1, sequence (Q96KS0 whole entry): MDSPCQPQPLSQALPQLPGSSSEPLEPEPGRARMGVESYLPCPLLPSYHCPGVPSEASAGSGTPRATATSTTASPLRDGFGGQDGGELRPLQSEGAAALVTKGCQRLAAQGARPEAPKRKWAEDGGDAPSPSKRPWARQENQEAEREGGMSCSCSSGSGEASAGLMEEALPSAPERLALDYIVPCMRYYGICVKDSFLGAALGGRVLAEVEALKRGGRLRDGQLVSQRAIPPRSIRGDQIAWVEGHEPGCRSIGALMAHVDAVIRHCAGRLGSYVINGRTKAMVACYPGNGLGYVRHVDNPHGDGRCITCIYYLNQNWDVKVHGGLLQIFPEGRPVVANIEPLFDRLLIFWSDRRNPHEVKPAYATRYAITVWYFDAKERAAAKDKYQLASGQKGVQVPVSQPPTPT

Structure (SMILES)	IC50 (PHD1; [2]) [µM]	IC50 (PHD3; [3]) [µM]	comparison of inhibition of NODD and CODD hydroxylation [1]	inhibition of CODD hydroxylation ([1]; RCC4 cells, 50 μM)	inhibition of NODD hydroxylation ([1]; RCC4 cells, 50 μM)	inhibition of HIF-1α NODD and CODD hydroxylation ([1]; RCC4 cells)	inhibition of HIF-1α Asn803 hydroxylation ([1]; RCC4 cells, up to 100 μM)	IC50 (JARID1A (KDM5A); read-out: IC50 JARID1A (KDM5A)) [µM]	inhibition of NODD hydroxylation ([1]; RCC4 cells, 100 μM)	inhibition of CODD hydroxylation ([1]; RCC4 cells, up to 100 μM)	inhibition of hydroxylation of Asn803 ([1]; RCC4 cells, up to 200 μM)	IC50 (PHD1) [µM]	IC50 (PHD3) [µM]	IC50 (JARID1A (KDM5A)) [µM]
Cc1nc(C(=O)NCC(=O)O)c(O)c2ccc(Oc3ccccc3)cc12 [FG-4592]	1.4	1.32	greatest inhibition of CODD hydroxylation among the inhibitors	clear inhibition	significantly inhibited	inhibited both NODD and CODD hydroxylation in a dose dependent manner	no sign of HIF-1α Asn803 hydroxylation inhibition	> 100						
O=C(O)CNC(=O)c1ncc(-c2cccc(Cl)c2)cc1O [Vadadustat]	0.84	0.26			no sign of PHD inhibition			> 100	only slight inhibition	no clear inhibition	not observed			
O=c1c(-n2ccnn2)c[nH]n1-c1cc(N2CCOCC2)ncn1 [Molidustat]	1.45	0.72	weaker inhibition of both hydroxylation sites compared to FG-4592 and GSK1278863 at 10 μM			inhibited both NODD and CODD hydroxylation in a dose dependent manner	no sign of HIF-1α Asn803 hydroxylation inhibition	> 100						
O=C(O)CNC(=O)C1C(=O)N(C2CCCCC2)C(=O)N(C2CCCCC2)C1=O [GSK1278863]			better inhibits NODD than CODD hydroxylation			inhibited both NODD and CODD hydroxylation in a dose dependent manner	no sign of HIF-1α Asn803 hydroxylation inhibition					1.5	0.61	> 100
CC(C)(C)OC(=O)c1ccc(-n2[nH]cc(-n3ccnn3)c2=O)nc1 [IOX4]	0.55	0.69				inhibited both NODD and CODD hydroxylation in a dose dependent manner		53						
